Test results from ChEMBL document CHEMBL5321208, “The effect of side chain variations on quinazoline-pyrimidine G-quadruplex DNA ligands” (Eur J Med Chem, 2023).
The source made the active and inactive calls. No cut-off for these calls is given here.

Experiments:
[1] = test system: Quadruplex DNA; assay: Binding affinity to FAM/TAMRA-labelled parallel KRAS G4 DNA (unknown origin) assessed as thermal stabilization at lowest concentration at 10 to 95 degreeC by FRET analysis; format: nucleic-acid assay
[2] = test system: Quadruplex DNA; assay: Binding affinity to FAM/TAMRA-labelled parallel KRAS G4 DNA (unknown origin) assessed as thermal stabilization at highest concentration at 10 to 95 degreeC by FRET analysis; format: nucleic-acid assay
[3] = test system: dsDNA; assay: Binding affinity to double stranded DNA (unknown origin) assessed as thermal stabilization at 1 to 8 uM measured at 10 to 95 degreeC by FRET analysis; format: nucleic-acid assay; settings: dose 1-8 µM
[4] = test system: Quadruplex DNA; assay: Binding affinity to FAM/TAMRA-labelled antiparallel Bom17 G4 DNA (unknown origin) assessed as thermal stabilization at 1 to 8 uM measured at 10 to 95 degreeC by FRET analysis; format: nucleic-acid assay; settings: dose 1-8 µM
[5] = test system: Quadruplex DNA; assay: Binding affinity to FAM/TAMRA-labelled antiparallel TBA G4 DNA (unknown origin) assessed as thermal stabilization at 1 to 8 uM measured at 10 to 95 degreeC by FRET analysis; format: nucleic-acid assay; settings: dose 1-8 µM
[6] = molecular target: Quadruplex DNA; assay: Binding affinity to 5'-Cy5-labelled parallel c-MYC Pu24T G4 DNA (unknown origin) assessed as dissociation constant by MST analysis; format: nucleic-acid assay
[7] = test system: Quadruplex DNA; assay: Binding affinity to parallel c-MYC Pu24T G4 DNA (unknown origin) assessed as change in topology at 5 uM by CD spectra analysis; format: nucleic-acid assay
[8] = test system: Quadruplex DNA; assay: Binding affinity to FAM/TAMRA-labelled parallel c-MYC Pu24T G4 DNA (unknown origin) assessed as thermal stabilization by measuring change in melting temperature at 2 uM in the presence of 100 equivalents of double stranded DNA by FRET competition assay; format: nucleic-acid assay
[9] = test system: Quadruplex DNA; assay: Binding affinity to FAM/TAMRA-labelled 21g G4 DNA (unknown origin) assessed as thermal stabilization at 1 to 8 uM measured at 10 to 95 degreeC by FRET analysis; format: nucleic-acid assay; settings: dose 1-8 µM
[10] = test system: Quadruplex DNA; assay: Binding affinity to FAM/TAMRA-labelled parallel 25ceb G4 DNA (unknown origin) assessed as thermal stabilization at 1 to 8 uM measured at 10 to 95 degreeC by FRET analysis; format: nucleic-acid assay; settings: dose 1-8 µM
[11] = test system: Quadruplex DNA; assay: Binding affinity to FAM/TAMRA-labelled c-KIT2 G4 DNA (unknown origin) assessed as thermal stabilization at 1 to 8 uM measured at 10 to 95 degreeC by FRET analysis; format: nucleic-acid assay; settings: dose 1-8 µM
[12] = test system: Quadruplex DNA; assay: Binding affinity to parallel c-MYC Pu24T G4 DNA (unknown origin) assessed as thermal stabilization by measuring change in melting temperature at 5 uM measured at 1:1 DNA to ligand ratio by CD spectra analysis; format: nucleic-acid assay
[13] = Cytotoxicity against wildtype C57BL/6J mouse cancer activated fibroblast cells assessed as inhibition of cell growth incubated for 5 days by resazurin dye based fluorescence microscopic analysis; format: toxicity
[14] = test system: Quadruplex DNA; assay: Binding affinity to FAM/TAMRA-labelled parallel KRAS G4 DNA (unknown origin) assessed as thermal stabilization by measuring change in melting temperature at 2 uM in the presence of 100 equivalents of double stranded DNA by FRET competition assay; format: nucleic-acid assay
[15] = test system: Quadruplex DNA; assay: Binding affinity to FAM/TAMRA-labelled parallel c-MYC Pu24T G4 DNA (unknown origin) assessed as thermal stabilization in the presence of 15 equivalents of double stranded DNA by FRET competition assay; format: nucleic-acid assay
[16] = test system: Quadruplex DNA; assay: Binding affinity to FAM/TAMRA-labelled parallel c-MYC Pu24T G4 DNA (unknown origin) assessed as thermal stabilization at 1 to 8 uM measured at 10 to 95 degreeC by FRET analysis; format: nucleic-acid assay; settings: dose 1-8 µM
[17] = test system: Quadruplex DNA; assay: Binding affinity to FAM/TAMRA-labelled parallel KRAS G4 DNA (unknown origin) assessed as thermal stabilization in the presence of 15 equivalents of double stranded DNA by FRET competition assay; format: nucleic-acid assay
[18] = Antitumor activity against KPC mouse pancreatic cancer organoid expressing lentiviral modified GFP co-cultured with WT C57BL/6J mouse pancreatic stellate cells expressing mKate2 assessed as inhibition of cell growth incubated for 5 days by resazurin dye based fluorescence microscopic analysis; format: functional, tissue-based; settings: 120 h
[19] = test system: Quadruplex DNA; assay: Binding affinity to FAM/TAMRA-labelled c-KIT1 G4 DNA (unknown origin) assessed as thermal stabilization at 1 to 8 uM measured at 10 to 95 degreeC by FRET analysis; format: nucleic-acid assay; settings: dose 1-8 µM
[20] = test system: Quadruplex DNA; assay: Binding affinity to FAM/TAMRA-labelled c-MYC Pu22 G4 DNA (unknown origin) assessed as thermal stabilization at 1 to 8 uM measured at 10 to 95 degreeC by FRET analysis; format: nucleic-acid assay; settings: dose 1-8 µM

Activity [1]	Activity [2]	Compound	Activity [3]	Activity [4]	Activity [5]	Kd [6] [nM]	Activity [7]	ΔTm [8] [°C]	Activity [9]	Activity [10]	Activity [11]	ΔTm [12] [°C]	IC50 at 5 days [13] [nM]	ΔTm [14] [°C]	Activity [15]	Activity [16]	Activity [17]	IC50 [18] [nM]	Activity [19]	Activity [20]
inactive	Active	Cc1cc(NCCc2c[nH]c3ccccc23)nc(Nc2nc(C)c3ccc4c(c3n2)CCCC4)n1	inactive	–	–	–	–	–	–	–	–	–	–	–	–	–	–	–	–	–
inactive	Active	Cc1cc(NCCc2c[nH]c3ccccc23)nc(Nc2nc(C)c3ccc4c(c3n2)CCC4)n1	inactive	–	–	–	–	–	–	–	–	–	–	–	–	–	–	–	–	–
–	–	Cc1cc(NCCCN2CCCCC2)nc(Nc2nc(C)c3ccc4c(c3n2)CCC4)n1	inactive	inactive	inactive	285	inactive	7	Active	inactive	Active	4	> 500	10	Active	Active	Active	793	Active	Active
–	–	CCN(CC)CCCNc1cc(C)nc(Nc2nc(C)c3ccc4c(c3n2)CCC4)n1	inactive	inactive	inactive	360	inactive	7	Active	inactive	Active	5	2820	10	Active	Active	Active	193	Active	Active
